Test results reported in paper PMC4168161, “A novel approach for the discovery of chemically diverse anti-malarial compounds targeting the Plasmodium falciparum Coenzyme A synthesis pathway” (Malaria Journal, 2014).

Experiments:
[1] = test system: P. falciparum CoA synthesis pathway; assay: Coenzyme A chemical rescue assay on P. falciparum; assay type: cell-based, Plasmodium falciparum; settings: for IC50 shift upon CoA supplementation: eight-point dose response, fixed CoA (0.8-2 mM), n = 2
Procedure: The well-established P. falciparum imaging assay was modified to allow assessment of chemical rescue with CoA. In brief, sorbitol (5% w/v) synchronization was performed twice, approximately 8 hr apart, on each synchronization day for two consecutive ring cycles, i.e., on day 1 and 3 of assay preparation. On day 2 the culture was split to approximately 2% trophozoite parasitaemia. On day 4 the culture was split to 1-1.5% trophozoite parasitaemia, which yielded approximately 8% ring parasitaemia after 48 hr (on day 5, i.e., the day of the assay set-up). Compound stocks (10 mM in 100% DMSO) were diluted 1:25 in sterile water, less than 24 hr prior to use. An additional 1:10 dilution was performed, resulting in a 1:250 overall compound dilution and a final DMSO concentration of 0.4%. For initial screening, compounds were tested at a final 2 μM concentration. […] The known P. falciparum CoA synthesis inhibitor, panthenol, was prepared as a 100 mM solution in 4% DMSO. The final concentration of the dose response curve of panthenol started at 10 mM and was serially diluted down to 100 nM. CoA was dissolved in water. […] Five μl of the 1:25 diluted test compound or control solutions were added to 384-well CellCarrier imaging plates (PerkinElmer). For the chemical rescue, 5 μl of CoA solution were added to ‘rescue’ wells and 5 μl water to all control and reference wells, respectively. Parasite culture was added to a final concentration of 1% parasitaemia (% P) and 0.3% haematocrit (% H). Plates were incubated for 72 hr at 37°C, 5% CO2 and 95% humidity. On day 8 the permeabilization and nuclear staining buffer was prepared in PBS containing 10 μg/ml saponin, 0.01% triton X, 5 mM EDTA (all: Sigma) and 0.5 μg/ml 4′,6-diamidino-2-phenylindole (DAPI; Life Technologies). The plates were left for at least 4 hr (typically overnight), before confocal imaging on an Opera™ High Content Screening Platform (PerkinElmer) at 405 nm excitation with a 20x water objective. Automated primary image analysis was performed concurrent with the imaging process, utilizing an Acapella® software (PerkinElmer) script to determine the number of parasites based on object size and fluorescence intensity. Determination of the % growth compared to controls (2 μM artemisinin as positive and 0.4% DMSO as negative control) was performed in Microsoft® Excel 2010. Statistical analysis including IC50 determination and graphical output was performed in GraphPad Prism® 5 using non-linear regression variable slope curve fitting. Cell-based high throughput screening (HTS) entails the distinct benefit that positive hits have already proven effective against the live parasite within its natural host erythrocyte environment. Modifications of an image-based assay were undertaken to identify compounds that interfere with the P. falciparum CoA pathway. The modification involved a chemical rescue approach adapted from a similar method used to investigate apicoplast function. The principle idea of the chemical rescue approach is that supplementation of an unbranched pathway’s end product – in this case CoA - should abrogate, or at least alleviate, negative growth effects of compounds inhibiting any step in the pathway. […] To identify new potential CoA synthesis inhibitors, the CoA chemical rescue approach was used to screen 144 compounds with known antiplasmodial activity identified by HTS in the Avery laboratory, in addition to the MMV malaria box. […] Compounds which rescued growth to at least 50% of control values and two-fold difference compared to treatment alone, were regarded as partial rescue hits.

HEK293 cells = assay: HEK293 viability assay (resazurin); assay type: cell-based, human; settings: HEK293, 72 hr, top concentration 40 μM, n = 3
Procedure: To assess cytotoxicity of compounds in dose response, a resazurin-based assay was utilized to determine cell viability. In brief, HEK293 cells were grown in DMEM medium (Life Technologies) containing 10% foetal calf serum (FCS; Gibco). Cells were trypsinized, counted and seeded at 2,000 cells per well in 45 μl media into TC-treated 384-well plates (Falcon) and left to adhere overnight at 37°C, 5% CO2 and 95% humidity.
Test compounds were prepared as described above, to give a top final test concentration of 40 μM, 0.4% DMSO. Plates were incubated for 72 hr at 37°C, 5% CO2 and 95% humidity, then the media was removed and replaced by 35 μl of 44 μM resazurin in DMEM without FCS. The plates were incubated for another 4-6 hr at 37°C, 5% CO2 and 95% humidity before reading on an EnVision® Plate Reader (PerkinElmer) using fluorescence excitation/emission settings of 530 nm/595 nm. Determination of the% growth compared to controls (40 μM puromycin as positive and 0.4% DMSO as negative control) was performed in Microsoft® Excel 2010. Statistical analysis including IC50 determination and graphical output was performed in GraphPad Prism® 5 using nonlinear regression variable slope curve fitting.

3D7 parasites = assay: Time course for parasite stage affected and phenotype (Giemsa smears); assay type: cell-based, Plasmodium falciparum; settings: for parasite stage of action / phenotype: compound at IC80, 0-48 hr
Procedure: The principle of the P. falciparum imaging assay described above was used, with the exception that the parasite synchronization was adjusted to yield parasites synchronized to a 2-hr window as established in-house. In brief, sorbitol synchronization was performed twice (approximately 8 hr apart) on day 1 and only once on day 3 (around 10.00). Schizonts observed on day 4 were left to mature and when rings were first observed, the mature schizonts were isolated using a MACS® column (Miltenyi Biotec). The purified schizonts were incubated for 2 hr at 37°C, 5% CO2 and 5% O2 and 90% N2 on a shaker. The obtained 0-2 hr old ring stage parasites were isolated by removing the remaining schizonts by flow through a MACS® column and the highly synchronized rings obtained were seeded in the assay plates with the compounds as described above. At each time point, one whole columns (16 wells) of identically treated parasites, i.e., 0.4% DMSO as control, compound at its individual IC80 or compound at IC80 plus CoA, were pooled and centrifuged. A smear was made from the pellet and stained with Giemsa (Sigma) for assessment the phenotype of treated parasites with or without supplementation of 0.8 mM CoA in comparison to DMSO controls.
The parasite viability assay used above is an endpoint assay that spans two development cycles of the parasite. To investigate the parasite stage of action of the identified compounds and the phenotype of compound treated parasites, a light microscopy-based time course study was undertaken. The seven compounds of submicromolar activity were added at time point t0 at their respective IC80 concentrations, with and without the addition of 0.8 mM CoA. The 3D7 parasites used in this experiment were age synchronized to within a 2-hr window of the ring stage. Due to assay preparation time, the parasite age at t0 therefore ranged from 0.5 hr to 2.5 hr.
At t0, t18, t24 and t48 parasite cultures for all conditions were centrifuged and Giemsa-stained blood smears were prepared. The 18-hr treatment time point was specifically chosen, since it was expected to see the transition between ring and trophozoite stage in control cultures around this time point (parasite age range 18.5 hr to […]). Therefore any delay in the transition from ring to trophozoite stage under treatment with the compounds was expected to be discernible at this time point.

[2] = at 2 μM compound, with CoA supplementation
[3] = compound at IC80 plus 0.8 mM CoA
[4] = compound at ~ IC80, with CoA supplementation
[5] = compound at IC80 plus 0.8 mM CoA, t24
[6] = compound at IC80 plus 0.8 mM CoA, t48

SMILES | CoA rescue (relative parasite number, % of untreated control) [1, 2] [% rescue at 2 μM] | IC50 shift upon CoA supplementation [1] | IC50 (HEK293 cells) [µM] | parasite stage of action / phenotype (3D7 parasites) | death rate of parasites (relative parasitaemia) (3D7 parasites; compound at IC80, from t24 onwards) [%] | abnormal trophozoites as share of all counted living trophozoites (3D7 parasites; compound at IC80, t48) [%] | relative parasitaemia of trophozoites showing abnormal morphology (3D7 parasites; compound at IC80, t48) [%] | CoA rescue of stage progression / phenotype (3D7 parasites; [3]) | CoA rescue (relative parasite number, % of untreated control) [1, 4] [% rescue at ~ IC80] | dead or dying parasites (relative parasitaemia) (3D7 parasites; compound at IC80, t24) | dead or dying parasites (relative parasitaemia) (3D7 parasites; compound at IC80, t48) [%] | dead or dying parasites (relative parasitaemia) (3D7 parasites; [5]) [%] | dead or dying parasites (relative parasitaemia) (3D7 parasites; [6]) | ring form parasites showing abnormal morphologies (3D7 parasites; compound at IC80, t48) | relative parasitaemia of trophozoites showing abnormal morphology (3D7 parasites; compound at IC80, t24) [%] | relative parasitaemia of dead or dying trophozoites (3D7 parasites; compound at IC80, t48) [%] | CoA rescue hit confirmation ([1]; retest) | compound-treated parasites able to progress from the ring to the trophozoite stage (3D7 parasites; compound at IC80)
CCOc1ccc(Nc2c3ccccc3nc3ccccc23)cc1.Cl [MMV000304/Amb636705] | 80 | 1.5 times | 1 | – | – | – | – | – | – | – | – | – | – | – | – | – | – | –
CC(=O)c1ccc2c3c(onc13)-c1ccccc1C2=O [Amb3377585] | – | greater than six times | 2.75 | killing both the ring and the trophozoite stage of the parasite from approximately t24 | 49 | 51 | 30.5 | very good rescue of parasite development, death rates and morphology | 50 | – | – | – | – | – | – | – | – | –
CCc1ccc(Nc2cc(C)c3ccc(O)cc3n2)cc1.Cl [MMV000570/C614-0191] | – | more than doubled | ~40 | affects both the development of the ring and trophozoite stage of the parasite | – | – | – | Addition of CoA did not alleviate this developmental delay | 80 | around 28% | ~20 | 13.4 | 8.3% | – | – | – | – | –
CC1=CC(=O)C(C(C)C)=C/C1=N/OS(=O)(=O)c1ccccc1 [STK 740987] | 50 | greater than six times | > 40 | no change in the stage composition of rings and trophozoites compared to the controls | – | – | – | – | – | around 16% | – | – | – | – | – | – | – | –
CC(C)=NOC(=O)c1c(C)noc1-c1snnc1C [SPB03400] | – | 1.5 times | > 40 | No change in the relative parasitaemia of rings or trophozoites compared to the untreated controls | – | – | – | – | 50 | – | – | – | – | around 50% | – | – | – | –
COc1ccc2c(=O)cc(C(Cl)(Cl)Cl)oc2c1 [MMV665820/5534045] | 80 | greater than six times | 3.6 | main compound action is on the trophozoite stage | – | – | 26.6 | CoA addition effectively rescued both parasite development and morphology | – | – | – | – | – | – | 42.9 | 13.8 | confirmed as a hit | –
Cc1csc(Sc2ncnc3sccc23)n1 [Amb180780] | – | greater than six times | ~40 | arrest parasite development at the ring stage | – | – | – | rescued very well by CoA addition | 80 | – | 28.6 | 20 | control levels | – | – | – | – | Less than 13%
